Values of other authors, collected in patent publication US20230062279A1, “PHARMACEUTICAL COMPOSITIONS OF BORTEZOMIB” (EXTROVIS AG, priority 2021, published 2023).
Where two headings read alike, the source gives them in different places.

CC(C)C[C@H](NC(=O)[C@H](Cc1ccccc1)NC(=O)c1cnccn1)B(O)O [bortezomib, [(1R)-3-methyl-1-[[(2S)-1-oxo-3-phenyl-2-[(pyrazinylcarbonyl)amino]propyl]amino]butyl] boronic acid]
degradation (PEG 300:Ethanol:Water (40:10:50), 25° C., 24 hours): about 20% | degradation (PG:Ethanol:Water, 25° C., 8 months): 20% | degradation (ethanol and normal saline 2:98, pH 2.8, 25° C., 1 month): 20%
